Assays:
[1] = xn = mol fraction of the nth substance listed; conditions: 101 kPa, Liquid, x1 = 1; for viscosity: Capillary tube (Ostwald / Ubbelohde) method; for mass density: Vibrating tube method
[2] = Liquid; for viscosity: Capillary tube (Ostwald / Ubbelohde) method; for mass density: Vibrating tube method

CC1CCCCC1 [methylcyclohexane] + C1C[C@@H]2[C@H]3CC[C@H](C3)[C@@H]2C1
[1]
Conditions | mass density [kg/m3] | viscosity [mPa·s]
303.15 K | 760.65 | 0.627
308.15 K | 756.29 | 0.581
313.15 K | 751.93 | 0.554

C1C[C@@H]2[C@H]3CC[C@H](C3)[C@@H]2C1 [exo-tetrahydrodicyclopentadiene]
[2]
Conditions | mass density [kg/m3] | vapor or sublimation pressure [kPa] | viscosity [mPa·s]
298.15 K, 101.33 kPa | 931.4 | – | 2.739
303.15 K, 101 kPa | 927.41 | – | 2.522
308.15 K, 101 kPa | 923.48 | – | 2.298
313.15 K, 101 kPa | 919.58 | – | 2.107
396 K, Ebulliometric method (Recirculating still) | – | 16.64 | –
401.4 K, Ebulliometric method (Recirculating still) | – | 20.62 | –
413.8 K, Ebulliometric method (Recirculating still) | – | 30.3 | –
418.3 K, Ebulliometric method (Recirculating still) | – | 34.79 | –
426.8 K, Ebulliometric method (Recirculating still) | – | 44.86 | –
431.2 K, Ebulliometric method (Recirculating still) | – | 50.7 | –
434.5 K, Ebulliometric method (Recirculating still) | – | 55.76 | –
436.6 K, Ebulliometric method (Recirculating still) | – | 59.2 | –
439 K, Ebulliometric method (Recirculating still) | – | 63.22 | –
441.1 K, Ebulliometric method (Recirculating still) | – | 66.63 | –
442.7 K, Ebulliometric method (Recirculating still) | – | 69.49 | –
442.8 K, Ebulliometric method (Recirculating still) | – | 69.77 | –
444.3 K, Ebulliometric method (Recirculating still) | – | 72.58 | –
445.7 K, Ebulliometric method (Recirculating still) | – | 75.11 | –
446.1 K, Ebulliometric method (Recirculating still) | – | 75.89 | –
450 K, Ebulliometric method (Recirculating still) | – | 83.92 | –
457.3 K, Ebulliometric method (Recirculating still) | – | 101.1 | –

Conditions | Normal boiling temperature [°C]
[2], Ebulliometric method (Recirculating still) | 184.94

From the NIST ThermoML archive (doi:10.1016/j.fluid.2011.03.030)
